Test results from article PMC9232612, “A phase 1b randomised controlled trial of a glucagon-like peptide-1 and glucagon receptor dual agonist IBI362 (LY3305677) in Chinese patients with type 2 diabetes” (Nature Communications, 2022).
Values joined by “and” are separate entries in the source; they are usually repeats but may differ in a detail not shown here. Equal values may be shown once.

Key:
Assay type in all cases: in vivo, human
[1] = system: Chinese patients with T2D; assay: Change from baseline in heart rate, standard 12-lead electrocardiogram; conditions: 1.5 mg once weekly
Text: (§1) Primary outcomes of the study were the safety and tolerability of IBI362. Safety assessment included adverse events, physical examinations, laboratory tests (including lipase, amylase and calcitonin level measures), vital signs and 12-lead electrocardiogram. Adverse events were categorized according to the Medical Dictionary for Regulatory Activities system organ classes (SOCs) and preferred terms. Treatment-emergent adverse events (TEAEs) were monitored from the time of informed consent to the safety follow-up period. The severity of TEAEs (mild, moderate or severe) and the association between an event and the study drug were assessed by investigators based on pre-specified criteria.
CFB in heart rate (beats/min),
Fig. S1: Change from baseline in heart rate over time.
Data are from standard 12-lead electrocardiogram, measured at 1 hour before each dose in the morning from week 0 to week 11, and 168 hours after the last dose (week 12). Data are plotted as means +/- SD. CFB = change from baseline; SD = standard deviation.Source data are provided as […]
(1 picture or pasted object on this page, not shown here)

[2] = system: Chinese patients with T2D; assay: Alanine aminotransferase and aspartate aminotransferase levels; conditions: 1.5 mg once weekly
Text: as §1
CFB in ALT (U/L), mean (SD)
CFB in AST (U/L), mean (SD)
Fig. S2: Change from baseline in ALT and AST levels over time.
a. CFB in ALT levels over time. b. CFB in AST levels over time. Data are plotted as means +/- SD.
ALT = alanine aminotransferase; AST = aspartate aminotransferase; CFB = change from baseline;
SD = standard deviation. Source data are provided as a Source Data file. […]

[3] = system: Chinese patients with T2D; assay: Fasting plasma glucose (FPG); conditions: 1.5 mg once weekly, MMRM
Protocol: (§2) HbA1c (2200101, Bio-Rad, USA), blood glucose (05168791190, Roche Diagnostics, Germany), insulin (12017547122, Roche Diagnostics, Germany), C peptide (03184897190, Roche Diagnostics, Germany), total GLP-1 (GLP-1 [7–36] amide and its metabolite, GLP-1 [9–36] amide, 10-1278-01, Mercodia AB, Sweden) and OXM (AL-139, AnshLabs, USA) tests were performed according to the manufactures’ instruction manuals in a central laboratory (KingMed Diagnostics, Guangzhou, China). HbA1c was measured using a Bio-rad D-100 Haemoglobin Testing System (Bio-rad). Blood glucose was measured using a Roche Cobas c702 analyser (Roche Diagnostics). Insulin and C peptide were measured using a Roche […] analyser (Roche Diagnostics). GLP-1 and OXM were measured using a Tecan Infinite M Plex microplate reader (TECAN).
(§3) Standard non-compartmental pharmacokinetics methods were used to analyze IBI362 plasma concentration data using Pkanalix 2020R1 (Lixoft, Antony, France). Secondary efficacy outcomes included change from baseline to week 12 in HbA1c, fasting plasma glucose (FPG), fasting insulin levels, change from baseline to week 12 in post-mixed-meal tolerance test (post-MTT) glucose, insulin, C peptide, GLP-1 and OXM levels, as well as seven-point self-measured blood glucose (SMBG) profile.
(§4) The analyses for change from baseline in HbA1c, FPG, post-MTT glucose AUC0–4 h and body weight were performed using the mixed-effect model for repeated measures (MMRM) with least-squares means and standard error provided. The MMRM included the corresponding baseline value, treatment, visit and treatment-by-visit as fixed effects and patient as a random effect. Mean change or mean percent change from baseline were analysed using a restricted maximum likelihood (REML)‐based repeated measures approach in combination with the Newton Raphson Algorithm. The fix effect of visit was fitted as a repeated effect and an unstructured covariance matrix was used. In case of non-converge, matrix like Variance Components and Compound Symmetry will be tested in a subsequent order until model‐convergence is achieved. The Kenward-Roger degree of freedom was used in estimating fixed effects. No missing data imputation was conducted. For HbA1c, FPG and body weight, point estimate of treatment difference versus placebo and 90% CI were provided for each IBI362 dose group and the dulaglutide group, with nominal p values.

[4] = system: Chinese patients with T2D; assay: Glycated haemoglobin A1c (HbA1c); conditions: 1.5 mg once weekly; for HbA1c at week 12, single patients: each line a single patient
Protocol: as §2, §3, §4

[5] = system: Chinese patients with T2D; assay: Homeostatic model assessment of β-cell function (HOMA-β); conditions: 1.5 mg once weekly, n=6
Text: (§5) Exploratory outcomes included change from baseline in body weight, waist circumference, body-mass index (BMI) and change in homeostatic model assessment of β-cell function (HOMA-β) and insulin resistance (HOMA-IR).

Body weight = conditions: 1.5 mg once weekly; for Percent change from baseline in body weight, LS mean / Percent change from baseline in body weight, LS mean (SE): n=6
Protocol: as §5, §4

## Dulaglutide: open-label active reference, subcutaneously once weekly at a fixed dose of 1.5 mg [reference compound]
[1]
  heart rate, mean change from baseline (bound): < 10 beats per minute
[2]; week 4
  Change from baseline in ALT, mean: -3.70 U/L
  Change from baseline in AST, mean: 0.83 U/L
[2]; week 8
  Change from baseline in ALT, mean: -4.33 U/L
  Change from baseline in AST, mean: 1.53 U/L
[2]; week 12
  Change from baseline in ALT, mean: -6.92 U/L
  Change from baseline in AST, mean: 1.58 U/L
[3]; week 4, n=6
  Change from baseline in fasting plasma glucose, LS mean: -3.19 mmol/L
[3]; week 8, n=6
  Change from baseline in fasting plasma glucose, LS mean: -3.36 mmol/L
[3]; week 12, n=6
  Change from baseline in fasting plasma glucose, LS mean (SE): -3.85 mmol/L
[3]; week 12
  Fasting plasma glucose: ETD versus placebo, LS mean (90% CI): -1.32 mmol/L
[4]; n=6
  Percent of patients with change from baseline to week 12 in HbA1c <1.0%: 16.7%
  Percent of patients with change from baseline to week 12 in HbA1c ≥1.0% and <1.5%: 50.0%
  Percent of patients with change from baseline to week 12 in HbA1c ≥1.5% and <2.0%: 0.0%
  Percent of patients with change from baseline to week 12 in HbA1c ≥2.0%: 33.3%
[4]
  HbA1c at week 12, single patients: 6.4% and 6.6% and 6.5% and 7.2% and 6.0%
[4]; listed as dulaglutide
  HbA1c at week 12, single patients: 5.5%
[4]; week 4, n=6, MMRM
  Change from baseline in HbA1c, LS mean: -1.03%
[4]; week 8, n=6, MMRM
  Change from baseline in HbA1c, LS mean: -1.72%
[4]; week 12, n=6
  patients achieving ≥1.5% reductions in HbA1c from baseline: 33.3%
[4]; week 12, n=6, MMRM
  Change from baseline in HbA1c, LS mean (SE): -1.98%
[4]; week 12, MMRM
  HbA1c: ETD versus placebo, LS mean (90% CI): −1.11%
[5]
  Change from baseline to week 12 in HOMA-β, mean: 30.9%
[5]; single patients
  Change from baseline to week 12 in HOMA-β, individual: 31.2% and 37.1% and 18.9% and 5.2% and 22.2% and 70.7%
Body weight; each line a single patient
  Percent change from baseline to week 12 in body weight, single patients: 1.8% and -0.6% and 0.5% and 1.3% and -0.126% and -7.2%
Body weight; week 4, MMRM
  Percent change from baseline in body weight, LS mean: -0.2%
Body weight; week 8, MMRM
  Percent change from baseline in body weight, LS mean: -0.8%
Body weight; week 12, MMRM
  Percent change from baseline in body weight, LS mean (SE): −0.9 (1.4) % and -0.9%
  Body weight (percent CFB): ETD versus placebo, LS mean (90% CI): 0.2 ( −2.8, 3.1) %
Body weight; week 12, MMRM, listed as dulaglutide
  Percent change from baseline in body weight, LS mean (SE): −0.9%
